Laboratory results taken from publication PMC5278707, “Structure-Activity Relationships of a Series of Echinocandins and the Discovery of CD101, a Highly Stable and Soluble Echinocandin with Distinctive Pharmacokinetic Properties” (Antimicrobial Agents and Chemotherapy, 2017).
Read-outs that look alike come from different tables or passages of the source. *1 amine or outer side, *2 acyl side, *3 side chain or, on linkers, in order; H or OH if unused. Where a SMILES comes first, the peptide text is derived from it. Bridges are numbered along the chain shown (N, C = ends). [ ]: non-standard residue; d: D form. The star is where a group is joined. Orn(4R-OH,5R-OCH2CH2NMe3+) = C[N+](C)(C)CCO[C@@H](N[*:3])[C@H](O)C[C@H](N[*:1])C(=O)[*:2]; pTerphenylCO(4''-OnC5H11) = CCCCCOc1ccc(-c2ccc(-c3ccc(C(=O)*)cc3)cc2)cc1; hTyr(3S-OH,4S-OH) = N[C@H](C(=O)O)[C@H](O)[C@@H](O)c1ccc(O)cc1; Pro(3S-OH,4S-Me) = C[C@H]1CN[C@H](C(=O)O)[C@H]1O; Hyp = O=C(O)[C@@H]1C[C@@H](O)CN1

How the values were obtained:
[1] = humans, clinical trials ref 22; cited from earlier work
[2] = test system: Aspergillus niger ATCC 16888; assay: CLSI broth microdilution (M38-A2) MEC/MIC; format: cell-based; conditions: 48 h, stunted hyphal growth
Protocol: (§1) All yeast and mold isolates were obtained from the American Type Culture Collection (ATCC). Isolates were plated on an agar medium to verify purity, and single colonies were picked. Aspergillus isolates were resubcultured on potato dextrose slants and incubated for 7 days at 35°C. Candida isolates were streaked on SDA plates and incubated for 24 h at 35°C. RPMI 1640 medium (HyClone Laboratories, Logan, UT) and the inoculum for each organism were prepared according to Clinical and Laboratory Standards Institute (CLSI) guidelines ([27][–][29]). Stock solutions for all test articles were prepared in 100% dimethyl sulfoxide (DMSO). Susceptibility testing was performed using CLSI broth microdilution methods for Candida (M27-A3) and Aspergillus (M38-A2). Amphotericin B was tested at a range of 0.06 to 64 μg/ml; all other antifungal agents were tested at 0.015 to 16 μg/ml. Plates were incubated at 35°C and were read from the bottom using a plate viewer after 24 and 48 h for Candida and after 48 h for Aspergillus. MIC values are reported as the lowest drug concentration to yield a 50% reduction in the growth of Candida species tested compared to the control well. Minimum effective concentration (MEC) values are reported as the lowest drug concentration to yield the stunted hyphal growth of Aspergillus species tested compared to that of the control well.

[3] = test system: Aspergillus flavus ATCC 22546; assay: CLSI broth microdilution (M38-A2) MEC/MIC; format: cell-based; conditions: 48 h, stunted hyphal growth
Protocol: as §1

[4] = test system: Aspergillus fumigatus ATCC 204305; assay: CLSI broth microdilution (M38-A2) MEC/MIC; format: cell-based; conditions: 48 h, stunted hyphal growth
Protocol: as §1

[5] = test system: Aspergillus ochraceus ATCC 96919; assay: CLSI broth microdilution (M38-A2) MEC/MIC; format: cell-based; conditions: 48 h, stunted hyphal growth
Protocol: as §1

[6] = test system: Aspergillus candidus ATCC 13686; assay: CLSI broth microdilution (M38-A2) MEC/MIC; format: cell-based; conditions: 48 h, stunted hyphal growth
Protocol: as §1

[7] = test system: Aspergillus fumigatus ATCC MYA-3626; assay: CLSI broth microdilution (M38-A2) MEC/MIC; format: cell-based; conditions: 48 h, stunted hyphal growth
Protocol: as §1

[8] = single-dose pharmacokinetics in beagle dogs; conditions: male, dog, in vivo, iv, beagle dogs, single i.v. 1.4 mg/kg, 10-min slow bolus
Protocol: Four male, nonnaive beagle dogs received a single i.v. infusion (1.4 mg/kg) of test article over 10 min via a catheter placed in the cephalic vein. Blood draws (1.0 ml) were taken at 0.083, 0.33, 0.75, 1.5, 4.5, 12, 24, and 48 h. An additional blood draw at 72 h was obtained for CD101. Blood draws were taken from the jugular vein and were collected into K3 EDTA tubes. Following blood collection, the samples were immediately inverted several times and were held on wet ice pending centrifugation. The samples were centrifuged within ∼30 min of collection under refrigeration (∼5°C for ∼10 min at ∼2,000 g) to obtain plasma. The plasma samples were frozen immediately on dry ice after separation and were stored at approximately −70°C until analysis. Levels of test article in the plasma samples were measured by quantitative liquid chromatography-tandem mass spectrometry (LC-MS/MS) analysis compared to a calibration curve and an internal standard. Pharmacokinetic parameters were calculated from the plasma concentration-time data using standard noncompartmental methods and utilizing WinNonlin analysis software.

[9] = test system: Candida parapsilosis ATCC 22019; assay: CLSI broth microdilution (M27-A3) MIC; format: cell-based; conditions: Lodderomyces parapsilosis, ATCC22019, 50% reduction in growth
Protocol: as §1

[10] = test system: Candida lusitaniae ATCC 34134; assay: CLSI broth microdilution (M27-A3) MIC; format: cell-based; conditions: Clavispora lusitaniae, ATCC34134, 50% reduction in growth, read-out: MIC
Protocol: as §1

[11] = test system: Candida tropicalis ATCC 90874; assay: CLSI broth microdilution (M27-A3) MIC; format: cell-based; conditions: 50% reduction in growth
Protocol: as §1

[12] = test system: Candida guilliermondii ATCC 34134; assay: CLSI broth microdilution (M27-A3) MIC; format: cell-based; conditions: Meyerozyma guilliermondii, ATCC34134, 50% reduction in growth
Protocol: as §1

[13] = test system: Candida albicans ATCC 90028; assay: CLSI broth microdilution (M27-A3) MIC; format: cell-based; conditions: 50% reduction in growth
Protocol: as §1

[14] = test system: Candida glabrata ATCC 90030; assay: CLSI broth microdilution (M27-A3) MIC; format: cell-based; conditions: Nakaseomyces glabratus, ATCC90030, 50% reduction in growth, read-out: MIC
Protocol: as §1

[15] = test system: Candida krusei ATCC 14243; assay: CLSI broth microdilution (M27-A3) MIC; format: cell-based; conditions: Pichia kudriavzevii, ATCC14243, 50% reduction in growth
Protocol: as §1

Candida albicans R303 = assay: mouse model of disseminated candidiasis, fungal burden in kidneys; format: in vivo; conditions: kidneys at 24 h
Protocol: Candida albicans R303 was grown on Sabouraud dextrose agar (SDA) plates for 24 h at 35°C. Colonies were transferred to phosphate-buffered saline (PBS) and diluted to 3.8 × 10^5 CFU/ml. Female CD-1 mice (Charles River Laboratories, Portage, MI) were rendered neutropenic via injection with cyclophosphamide (150 mg/kg) 5 days and 2 days prior to inoculation. Each animal was infected by injecting 0.1 ml of inoculum into the tail vein. In the treatment groups, animals received 0.5, 1.5, or 4.5 mg/kg of test article 2 h after inoculation. Two groups of untreated, infected controls were used to evaluate fungal burden: at 2 h when test articles were administered in the treatment groups and at 24 h when the treatment groups were sacrificed. Kidneys were harvested at 2 h in one untreated control group and at 24 h in all other groups. The kidneys were homogenized in 2 ml of sterile phosphate-buffered saline, and 0.1-ml aliquots were spread on SDA plates and incubated at 35°C overnight. Fungal burden was determined based on the log10 C. albicans CFU counts from paired kidneys. Data were analyzed using a one-way analysis of variance (ANOVA) and the Dunnett multiple comparisons test comparing the test articles to the infected control group (GraphPad InStat version 3.1; GraphPad Software, San Diego, CA).

[16] = test system: Aspergillus clavatus ATCC 10058; assay: CLSI broth microdilution (M38-A2) MEC/MIC; format: cell-based; conditions: read at 68 h, stunted hyphal growth
Protocol: as §1, with “Plates were incubated at 35°C and were read from the bottom using a plate viewer after 24 and 48 h for Candida and after 48 h for Aspergillus.” left out

Aspergillus spp. = assay: CLSI broth microdilution (M38-A2) MEC, whole panel; format: cell-based; conditions: 48 h, summary of Table 3
Protocol: as §1

CCCCCOc1ccc(-c2ccc(-c3ccc(C(=O)N[C@H]4C[C@@H](O)[C@@H](OCC[N+](C)(C)C)NC(=O)[C@@H]5[C@@H](O)[C@@H](C)CN5C(=O)[C@H]([C@@H](C)O)NC(=O)[C@H]([C@H](O)[C@@H](O)c5ccc(O)cc5)NC(=O)[C@@H]5C[C@@H](O)CN5C(=O)[C@H]([C@@H](C)O)NC4=O)cc3)cc2)cc1 [CD101] ({pTerphenylCO(4''-OnC5H11)}-[Orn(4R-OH,5R-OCH2CH2NMe3+)]T[Hyp][hTyr(3S-OH,4S-OH)]T[Pro(3S-OH,4S-Me)]; lactam 1-C)
half-life in clinical trials [1]: > 80 h | MEC [2]: ≤0.015 µg/mL | MEC [3]: ≤0.015 µg/mL | MEC [4]: ≤0.015 µg/mL | MEC [5]: 0.03 µg/mL | MEC [6]: ≤0.015 µg/mL | MEC [7]: ≤0.015 µg/mL | clearance [8]: 0.317 mL/min/kg | Vd ([8]; read-out: V (volume of distribution)): 1.36 L/kg | half-life ([8]; read-out: t1/2 (converted)): 53.1 h | MIC ([9]; 24 h): 0.5 µg/mL | MIC ([9]; 48 h): 1 µg/mL | MIC ([10]; 24 h): 0.25 µg/mL | MIC ([10]; 48 h): 0.25 µg/mL | MIC ([11]; ATCC90874, 24 h): ≤ 0.015 µg/mL | MIC ([11]; ATCC90874, 48 h): ≤ 0.015 µg/mL | MIC ([12]; 24 h): 0.5 µg/mL | MIC ([12]; 48 h): 2 µg/mL | MIC ([13]; ATCC90028, 24 h): 0.03 µg/mL | MIC ([13]; ATCC90028, 48 h): 0.03 µg/mL | MIC ([14]; 24 h): 0.03 µg/mL | MIC ([14]; 48 h): 0.03 µg/mL | MIC ([15]; 24 h): 0.03 µg/mL | MIC ([15]; 48 h): 0.03 µg/mL | reductions in fungal burden vs infected control (statistical significance) (Candida albicans R303; neutropenic CD-1 mice, 0.5, 1.5 or 4.5 mg/kg 2 h after inoculation): statistically significant (P < 0.01) reductions in fungal burden at all doses | fungal burden relative to limit of detection (Candida albicans R303; neutropenic CD-1 mice, 0.5, 1.5 or 4.5 mg/kg): below the limit of detection for at least one of the doses | MEC [16]: 0.03 µg/mL | MEC values against all Aspergillus species tested (Aspergillus spp.): below 0.03 μg/ml
